Here are results for two molecules from article PMC5692573 (Proceedings of the National Academy of Sciences of the …, 2017).

In general, stoichiometry N refers to the number of molecules, sites or subunits per partner or assembly.

The target in one test is Kif18A (Homo sapiens, UniProt Q8NI77). Description: cryo-EM reconstruction. In kind it is binding.
Test [1] addresses αβ-tubulin heterodimer (in paclitaxel-stabilized microtubules, or as curved tubulin in rings). Nature of the test: cryo-EM 2D class averages.

In the case of `Nc1ncnc2c1ncn2[C@@H]1O[C@H](CO[P@](=O)(O)O[P@](=O)(O)NP(=O)(O)O)[C@@H](O)[C@H]1O` [AMPPNP], the “cryo-EM reconstruction (~6 Å) of MT-bound Kif18A_MDNL with AMPPNP” value at Kif18A was “In the presence of AMPPNP, the nucleotide-binding site is clearly occupied by the bound nucleotide”.

B1: Kif18A_MDNL, monomeric human Kif18A motor-neck linker construct (domain or fragment)
chain: MSVTEEDLCHHMKVVVRVRPENTKEKAAGFHKVVHVVDKHILVFDPKQEEVSFFHGKKTTNQNVIKKQNKDLKFVFDAVFDETSTQSEVFEHTTKPILRSFLNGYNCTVLAYGATGAGKTHTMLGSADEPGVMYLTMLHLYKCMDEIKEEKICSTAVSYLEVYNEQIRDLLVNSGPLAVREDTQKGVVVHGLTLHQPKSSEEILHLLDNGNKNRTQHPTDMNATSSRSHAVFQIYLRQQDKTASINQNVRIAKMSLIDLAGSERASTSGAKGTRFVEGTNINRSLLALGNVINALADSKRKNQHIPYRNSKLTRLLKDSLGGNCQTIMIAAVSPSSVFYDDTYNTLKYANRAKDIKSSLKSNVLNVNNHITQYV
B1 gave a stoichiometry N in test [1] of 1.
